From article PMC11099041, “Tissue distribution and retention drives efficacy of rapidly clearing VHL-based PROTACs” (Communications Medicine, 2024)

Tests used:
[1] = Metabolite profiling in rat bile, urine and feces (radio-HPLC, LC-HRMS); type: in vivo; conditions: in vivo, iv, 4 mg/kg
Method: Tissue homogenate samples at 24 hours were extracted as plasma samples. […] The pooled urine samples containing 10% MeOH were analyzed by liquid chromatography-high resolution mass spectrometry (LC-HRMS).
The pooled bile sample containing 10% MeOH was analyzed by LC-HRMS.
Feces samples obtained from BDC and intact rats were pooled separately across time intervals for each animal (5% w/v) and further pooled across animals for each group to generate a 0–68 hour pooled sample. Approximately 1–2 g of each pooled feces sample was extracted as the same protocol used for plasma samples. […] The reconstituted samples were analyzed by LC-HRMS.
The reconstituted samples were analyzed by LC-HRMS, with eluent fractions collected at 10-second intervals into 96-well plates containing solid scintillant. Radioactivity in each well was determined using TopCount analysis, and radiochemical profiles were generated based on radioactivity counts. Structural elucidation was performed based on mass spectral interpretation to identify metabolites.
For metabolite profiling and identification, LC-MS analysis used a Shimadzu/Nexera LC-30 AD liquid chromatographic system and a ThermoFisher Scientific Q Exactive with a positive/negative heated electrospray interface. The column was a Waters XSelect HSS T3 4.6 mm × 250 mm, 3.5 µm and maintained at 40 °C. The mobile phases were (A) 20 mM ammonium acetate in water and (B) acetonitrile. […] The flow was 1 mL/min and split 20% to mass analysis and 80% collected for radioactivity counting. Mass spectrometry data was acquired with full scans at a resolution of 70,000 for a m/z range of 300 to 1500, and MS/MS scans were acquired at a resolution of 17,500. The mass spectrometer was operated with a normalized collision energy of 30 (ESI+), S-Lens RF level of 60, source voltage of +3.5 kV, Capillary temperature of 320 °C, and Probe heater temperature of 300 °C.

[2] = Bioavailability after PO administration (peer review reply); type: in vivo; conditions: authors' reply in peer review file

| SMILES | %Rad in bile [1] [%] | %rad in feces [1] [%] | %rad in urine [1] [%] | Bioavailability after PO administration [2] |
| --- | --- | --- | --- | --- |
| Cc1ncsc1-c1ccc(C(C)NC(=O)C2CC(O)CN2C(=O)C(c2cc(N3CCC(CN4CCC(OC5CC(Oc6cc(N7C8CCC7CN(c7cc(-[14c]9[14cH][14cH][14cH][14cH][14c]9O)nnc7N)C8)ccn6)C5)CC4)CC3)no2)C(C)C)cc1 (stereo not shown) [14C-A947] | 23.11 | 18.95 | 20.6 | – |
| Cc1ncsc1-c1ccc(C(C)NC(=O)C2CC(O)CN2C(=O)C(c2cc(N3CCC(CN4CCC(OC5CC(Oc6cc(N7C8CCC7CN(c7cc(-c9ccccc9O)nnc7N)C8)ccn6)C5)CC4)CC3)no2)C(C)C)cc1 (stereo not shown) [A947] | – | – | – | did not find bioavailability |
